Test results: patent US20250376446A1, “[…] OF A […] CANNABINOID” (Jazz Pharmaceuticals Research UK Limited, priority 2022, published 2025)

Columns and labels:
[1] = tested on: mouse model of generalised seizure (tonic hind limb extensor convulsions); test: Maximal electroshock seizure threshold (MEST) test in the mouse; conditions: for % change from vehicle (CC50) / CC50 +/- SEM: 30 min post dose
Method: The efficacy of compound 1 was tested in a mouse model of generalised seizure, the maximal electroshock seizure threshold (MEST) test.
The maximal electroshock seizure threshold (MEST) test is widely utilized preclinically to evaluate pro-or anti-convulsant properties of test compounds (Loscher et al., 1991).
In the MEST test the ability of a drug to alter the seizure threshold current required to induce hind limb tonic extensor convulsions is measured according to an “up and down” method of shock titration (Kimball et al., 1957). An increase in seizure threshold is indicative of anti-convulsant effect.
The ability of a test compound to alter the stimulus intensity, expressed as current (mA), required to induce the presence of tonic hind limb extensor convulsions, is assessed in the MEST.
Naïve mice were acclimatised to the procedure room in their home cages for up to 7 days, with food and water available ad libitum.
All animals were weighed at the beginning of the study and randomly assigned to treatment groups based on a mean distribution of body weight across groups.
The first animal within a treatment group was given a shock at the expected or estimated CC50 current. For subsequent animals, the current was lowered or raised depending on the convulsions outcome from the preceding animal, in intervals of 5 mA.
Data generated from each treatment group were used to calculate the CC50+SEM values for the treatment group.
Vehicle: (5% ethanol, 10% solutol, 85% Saline) was prepared as follows: 1 mL of ethanol, 2 mL of solutol were warmed to 60° C., in 17 mL of saline (1:2:17).
The test compound (compound 1) was administered at 2, 20 and 200 mg/kg (i.p.) in a 1:2:17 ethanol: solutol: 0.9% saline formulation.
The data for each treatment group were recorded as the number of +'s and 0's at each current level employed and this information is then used to calculate the CC50 value (current required for 50% of the animals to show seizure behaviour)±standard error.
Test compound effects were also calculated as percentage change in CC50 from the vehicle control group.
Significant difference between drug-treated animals and controls were assessed according to Litchfield and Wilcoxon (1949).

[2] = Stability of Form B to compression (die press, XRPD); assay type: physicochemical; conditions: compression @ 370 MPa for 24 hrs; for Output Form (compression experiment): XRPD
Method: A die press was used to mimic the uniaxial stress experienced during formulation steps such as tableting. Form B (50 mg) was added to a KBr pellet die and compressed overnight at ˜370 MPa using a hydraulic press. The resultant solid disc was removed from the press and immediately analysed by XRPD.

[3] = Stability of Form B to milling (ball mill, XRPD); assay type: physicochemical; conditions: no solvent, mill at 25 Hz, 3 x 2 mins; for Output Form (milling experiment): XRPD
Method: A ball mill was used to mimic the effects of grinding that would be experienced during formulation steps such as dry blending and wet granulation. Form B (50 mg) was added to a milling chamber with an agate milling ball. Using a Retsch MM200 mixer mill, the material was milled for 6-10 minutes at a frequency of 25 Hz. Periodically, the milling was stopped and powder that adhered to the milling chamber was scraped down. The resultant milled material was analysed using XRPD.

[4] = Stability of Form B to humidity stress (XRPD); assay type: physicochemical; conditions: 40° C./75% RH for 8 days
Method: Form B material was exposed to high humidity conditions to determine stability on storage. Approximately 20 mg of Form B material was added to a vial and placed unsealed into a sealed cabinet with a relative humidity of 75% (controlled by a super-saturated salt solution) and a temperature of 40° C. for 8 days. The resultant material was analysed by XRPD.

[5] = Retest of Form C after storage at ambient conditions; assay type: physicochemical; conditions: 6 days storage at ambient conditions

C=C(C)[C@@H]1CCC(C)=C[C@H]1c1c(O)cc(-c2cnn(C)c2)cc1O [Compound 1, (1′R,2′R)-5′-methyl-4-(1-methyl-1H-pyrazol-4-yl)-2′-(prop-1-en-2-yl)-1′,2′,3′,4′-tetrahydro-[1,1′-biphenyl]-2,6-diol]
% change from vehicle (CC50) ([1]; i.p., 2 mg/kg): 27% | CC50 +/- SEM ([1]; i.p., 2 mg/kg): 30.8 ± 1.0 mA | % change from vehicle (CC50) ([1]; i.p., 20 mg/kg): 116% | CC50 +/- SEM ([1]; i.p., 20 mg/kg): 52.5 ± 1.3 mA | % change from vehicle (CC50) ([1]; i.p., 200 mg/kg): 712% | CC50 +/- SEM ([1]; i.p., 200 mg/kg): 197.5 ± 20.4 mA | Effect on MEST (in words) ([1]; i.p., 2, 20 and 200 mg/kg): dose-related increase in MEST | CC50 value compared to vehicle (in words) ([1]; i.p., 30 minutes before the test, all three doses (2, 20, 200 mg/kg)): statistically significant

CN1C(=O)CN=C(c2ccccc2)c2cc(Cl)ccc21 [Diazepam, diazepam, reference compound]
% change from vehicle (CC50) ([1]; i.p., 2.5 mg/kg): 223%

C=C(C)[C@@H]1CCC(C)=C[C@H]1c1c(O)cc(-c2cnn(C)c2)cc1O [Form B, (1′R,2′R)-5′-methyl-4-(1-methyl-1H-pyrazol-4-yl)-2′-(prop-1-en-2-yl)-1′,2′,3′,4′-tetrahydro-[1,1′-biphenyl]-2,6-diol]
Result (compression experiment) [2]: solid | Output Form (compression experiment) [2]: stable to compression | Output Form (compression experiment) ([2]; listed as B): B (slight disorder) | Result (milling experiment) [3]: solid | Output Form (milling experiment) [3]: did not undergo a change in form | Output Form (milling experiment) ([3]; listed as B): B (disordered) | Result (humidity stress experiment) [4]: solid | Output Form (humidity stress experiment) ([4]; XRPD): stable to storage

C=C(C)[C@@H]1CCC(C)=C[C@H]1c1c(O)cc(-c2cnn(C)c2)cc1O [Form C, (1′R,2′R)-5′-methyl-4-(1-methyl-1H-pyrazol-4-yl)-2′-(prop-1-en-2-yl)-1′,2′,3′,4′-tetrahydro-[1,1′-biphenyl]-2,6-diol]
Form after storage [5]: converted to a Form A
